Where two headings read alike, the source gives them in different places.

The record followed here is article PMC4975872 (Journal of biomolecular screening, 2014).

Experiment [1] deals with ERK/β-arrestin interaction. It counts as cell-based, human. The following applies: antagonist 15 min, then 1 μM adrenaline for 90 min.
Experiment [2] has as its system ERK/β-arrestin interaction. It counts as cell-based, human. The following applies: inhibitor 15 min in serum-free DMEM, then 5% FBS for 90 min.
The target of experiment [3] is S1P (endogenous GPCR). It counts as cell-based, U2OS. Conditions: read-out: EC50 values; n = 3.
For experiment [4], the system named is ERK/β-arrestin interaction. Conditions: 10 μM agonist, Fig. S5.
Experiment [5] deals with ERK/β-arrestin interaction. In words: ERK/β-arrestin interaction LinkLight assay, RTK ligand responses. It counts as cell-based, human. Conditions: endogenous RTKs in U2OS cells, serum-free DMEM, 90 min, 37°C.
Experiment [6] relates to ERK/β-arrestin interaction. In words: ERK/β-arrestin interaction LinkLight assay, cytokine receptor response. It counts as cell-based, human. Conditions: for S/B ratio: 0.1 μg/ml cytokine, Fig. S5; for EC50, stimulation of ERK/β-arrestin interaction signals by cytokines: endogenous cytokine receptors in U2OS cells, serum-free DMEM, 90 min, 37°C.

As for `CN(C)CCN(C)CCc1ccc(Cl)c(Cl)c1` [BD-1047], in experiment [1], the “inhibition of GPCR agonist-induced ERK/β-arrestin interaction signals” value is given as “inhibit”. On to `O=C(NOCC1CC1)c1ccc(F)c(F)c1Nc1ccc(I)cc1Cl` [CI-1040], for which the “inhibition of FBS-induced ERK/β-arrestin interaction signals” value in experiment [2] is reported as “did not block”. Still for that read-out and setting: as for `O=C1Nc2ccc(I)cc2/C1=C/c1cc(Br)c(O)c(Br)c1` [GW5074], the entry is “did not block”. For the molecule `CCCCCCCCCCCCC/C=C/[C@@H](O)[C@@H](N)COP(=O)(O)O` [S1P, sphingosine 1-phosphate], in experiment [3], the EC50 (commonly the concentration at which the effect is half-maximal) is 337 nM.

Consider `CNC[C@H](O)c1ccc(O)c(O)c1` [adrenaline], for which the S/B ratio in experiment [4] came to 3.78 fold. `Cc1nc(Nc2ncc(C(=O)Nc3c(C)cccc3Cl)s2)cc(N2CCN(CCO)CC2)n1` [dasatinib]: the “inhibition of FBS-induced ERK/β-arrestin interaction signals” value in experiment [2] is “blocked”. As for `NCCc1ccc(O)c(O)c1` [dopamine], in experiment [4], the S/B ratio is on record as 3.66 fold.

“EGF: epidermal growth factor, RTK ligand”: the “EC50, stimulation of luciferase signals by RTK ligands” value in experiment [5] came out at 3.75 ng/mL. On the same count and under the same terms, as for “FGF-b: growth factor FGF-basic, RTK ligand”, the figure is 3.87 ng/mL. For the molecule IL1β: recombinant human cytokine IL1β, in experiment [6], the S/B ratio stood at 14.5 fold and the “EC50, stimulation of ERK/β-arrestin interaction signals by cytokines” value came to 2.8 ng/mL.

Turning to TNFα, in experiment [6], the S/B ratio came to 8.99 fold and the “EC50, stimulation of ERK/β-arrestin interaction signals by cytokines” value is 5.65 ng/mL.
